Measurements from patent US9249115B2, “N,N1 substituted piperazines having combined antiaggregant, anticoagulant and vasodilatory activity, and method for producing same” (Vertex Closed Joint Stock Company, priority 2011, dated 2016).

What was measured:
[1] = tested on: Thrombocyte aggregation induced by arachidonic acid; assay: Thrombocyte aggregation induced by arachidonic acid; assay type: cell-based, human; conditions: 4.5 mmol/L, arachidonic acid 0.2 mmol
Description: (§1) The study of antiaggregant and anticoagulant properties of N,N′-substituted piperazines on the sample of donor human blood. The blood was collected by donor ulnar vein punction with dry sharp needle without syringe. The administration of drugs that influence on thrombocyte function was cancelled in 7÷10 days before the experiment.
(§2) In graduated plastic centrifuge tube 1 ml of 3.8% basic trisodium citrate solution with pH=7.4 was placed. The ulnar vein was punctuated, the freely effluent blood was collected up to 10 ml mark, the mixture was instantly stirred to prevent air bubbles appearance. The collected and stabilized blood was split in two 5 ml portions in two tubes.
(§3) To obtain thrombocyte enriched plasm the stabilized blood was spinned at 1000 rpm (150 g) for 8 min at room temperature. The repeated spinning of the blood at 3200 rpm (2300 g) for 20 min at 22° C. yielded thrombocyte depleted plasm.
The study of antiaggregant properties of N,N′-substituted piperazines with arachidonic acid (CHRONO-LOG, USA) as an inductor: to 450 l of thrombocyte plasm 50 l of N,N′-substituted piperazine solution was added, the mixture was incubated in the cuvette of CHRONO-LOG aggregometer for 15 min at 36° C. The concentration of arachidonic acid in the sample was 0.2 mmol, the concentrations of N,N′-substituted piperazines and comparison substance (aspirin) were 4÷5 mmol/L.
It was shown that N,N′-substituted piperazines have pronounced aspirin-like activity by inhibiting thrombocyte aggregation induced by arachidonic acid (table 5).

[2] = tested on: Collagen-induced thrombocyte aggregation; assay: Collagen-induced thrombocyte aggregation, donor human thrombocyte enriched plasm; assay type: cell-based; conditions: collagen inductor; for MA, %: human thrombocyte plasm
Description: as §1, §2, §3
(§4) The study of anticoagulant activity was done within 2 h after thrombocyte enriched plasm obtaining. The plasm was normalized to achieve thrombocyte concentration of 200-250×10^9/L by addition of thrombocyte-free plasm. The concentration of thrombocytes was measured on SOLAR AR 2110 analyzer.
(§5) Antiaggregant properties of N,N′-substituted piperazines were evaluated by their influence on thrombocyte aggregation in tests with ADP-, collagen- and ristocetin-induced aggregation. To dissolve N,N′-substituted piperazines and to dilute reagents Tris-HCl-buffer with pH=7.4 was used.
(§6) As the general characteristic of thrombocyte aggregation activity the maximum amplitude (MA) of aggregation was taken on. That is the peak value of transmittance coefficient of the sample after aggregation agent introduction expressed in % relative to the transmittance of thrombocyte-free plasm. The response was registered on ascending linear segment of aggregation curve for 16 s.
(§7) The measurements were done using 4-channel CHRONO-LOG 490-4D analyzer (CHRONO-LOG, USA). The temperature in the cell was 37° C., the spinning speed of magnetic stirrer was 1200 rpm.
(§8) In a cuvette 0.5 ml of N,N′-substituted piperazine solution was placed, then 0.4 ml of normalized thrombocyte plasm was added. The mixture was stirred and incubated at 37° C. for 5 min. The cuvette was placed in aggregometer, then 0.05 ml of aggregation inductor solution was added (ADP or collagen or ristocetin). Thrombocyte aggregation was measured for 3 min.
In collagen-induced thrombocyte aggregation test CHRONO-PAR COLLAGEN reagent (CHRONO-LOG, USA) was diluted with buffer solution until collagen concentration reached 10 µg/ml.

[3] = tested on: ADP-induced thrombocyte aggregation; assay: ADP-induced thrombocyte aggregation, donor human thrombocyte enriched plasm; assay type: cell-based; conditions: ADP inductor; for MA, %: human thrombocyte plasm
Description: as §1, §2, §3, §4, §5, §6, §7, §8
ADP-induced reversible thrombocyte aggregation test utilized CHRONO-PAR ADP reagent (CHRONO-LOG, USA) with 10 mol concentration. Primary (reversible) thrombocyte aggregation was evaluated by the response on addition of ADP threshold dose (ADP concentration is 1 mol) to plasm.

[4] = tested on: thrombocyte depleted plasm coagulation; assay: Activated partial thromboplastin time (APTT), anticoagulant properties; assay type: biochemical, human; conditions: for APTT: thrombocyte depleted plasm
Description: as §1, §2, §3
To study anticoagulant properties of N,N′-substituted piperazines activated partial thromboplastin time (APTT) was measured. That is the ability of N,N′-substituted piperazines to increase thrombocyte depleted plasm coagulation time compared to the ability of control sample. The set of reagents for APTT determination (Russian Scientific Research Institute of Hematology and Transfusiology Ministry of Health of Russian Federation by Technical Regulation 9398-214-01966456-99) and COAG-A-MATE® XM coagulometer (ORGANON TEKNIKA, USA) were used.
The solutions of N,N′-substituted piperazines were mixed with thrombocyte depleted plasm at 1:1 ratio, then 0.1 ml of APTT reagent was added, the mixture was incubated in the cuvette for 5 min at 37° C., then 0.1 ml of 0.277% CaCl2 solution was added. The time of coagulation (in seconds) was measured.

[5] = tested on: Ristocetin-induced thrombocyte aggregation; assay: Ristocetin-induced thrombocyte aggregation, donor human thrombocyte enriched plasm; assay type: cell-based; conditions: ristocetin inductor; for MA (60 c), %: amplitude at 60 s
Description: as §1, §2, §3, §4, §5, §6, §7, §8
To study ristocetin-induced thrombocyte aggregation CHRONO-PAR RISTOCETIN reagent (CHRONO-LOG, USA) was diluted with buffer solution until ristocetin concentration reached 12 mg/ml. Thrombocyte aggregation amplitude was measured in 60 s after the beginning of the reaction.

[6] = Homo sapiens, 0.5 mmol/L, read-out: (MA0-MAx): MA0 * 100%
[7] = Homo sapiens, 1.25 mmol/L, read-out: (MA0-MAx): MA0 * 100%

Compound: COc1ccc(CN2CCN(C(=N)N)CC2)c(OC)c1OC [Example 7, 4-(2,3,4-trimethoxybenzyl)piperazine-1-carboximidamide monohydrate]
- MA [1]: 72
- Max. rate for 16 sec [1]: 49
- inhibition at 4500 µM ([1]; Homo sapiens): 35%

Compound: COc1ccc(CN2CCN(C(=N)N)CC2)c(OC)c1OC.O=C(O)/C=C/C(=O)O [Example 8, 4-(2,3,4-trimethoxybenzyl)piperazine-1-carboximidamide fumarate]
- MA, % ([2]; 0.5 mmol/L): 72.3 ± 6.3%
- MA, % ([2]; 1.25 mmol/L): 63.5 ± 9.8%
- MA, % ([2]; 2.5 mmol/L): 58.5 ± 9.6%
- MA, % ([2]; 5.0 mmol/L): 51.3 ± 7.9%
- inhibition at 500 µM [2, 6]: 5.2%
- inhibition at 1250 µM [2, 7]: 16.8%
- inhibition at 2500 µM ([2]; Homo sapiens, 2.5 mmol/L, read-out: (MA0-MAx): MA0 * 100%): 23.3%
- inhibition at 5000 µM ([2]; Homo sapiens, 5.0 mmol/L, read-out: (MA0-MAx): MA0 * 100%): 32.8%
- MA, % ([3]; 0.2 mmol/L): 18.5 ± 2.8%
- MA, % ([3]; 0.5 mmol/L): 14.3 ± 3.0%
- MA, % ([3]; 1.25 mmol/L): 8.5 ± 2.8%
- MA, % ([3]; 2.50 mmol/L): 2.5 ± 1.6%
- inhibition at 200 µM ([3]; Homo sapiens, 0.2 mmol/L, read-out: (MA0-MAx): MA0 * 100%): 2.6%
- inhibition at 500 µM [3, 6]: 24.7%
- inhibition at 1250 µM [3, 7]: 55.3%
- inhibition at 2500 µM ([3]; Homo sapiens, 2.50 mmol/L, read-out: (MA0-MAx): MA0 * 100%): 86.8%
- (APTTx-APTT0): APTT0 * 100% ([4]; 1.7 mmol/L): 27.0%
- APTT ([4]; 1.7 mmol/L): 61.1 ± 4.4 s
- (APTTx-APTT0): APTT0 * 100% ([4]; 2.5 mmol/L): 56.5%
- APTT ([4]; 2.5 mmol/L): 71.3 ± 5.2 s
- (APTTx-APTT0): APTT0 * 100% ([4]; 4.1 mmol/L): 89.4%
- APTT ([4]; 4.1 mmol/L): 91.1 ± 9.9 s
- (APTTx-APTT0): APTT0 * 100% ([4]; 8.3 mmol/L): 201.5%
- APTT ([4]; 8.3 mmol/L): 145.0 ± 7.3 s
- MA (60 c), % ([5]; 0.2 mmol/L): 60.4 ± 9.1%
- (MAx-MA0): MA0 * 100% ([5]; 0.5 mmol/L): 16.1%
- MA (60 c), % ([5]; 0.5 mmol/L): 50.7 ± 8.7%
- (MAx-MA0): MA0 * 100% (Ozagrel: (MA0-MAx): MA0 * 100%) ([5]; 1.25 mmol/L): 20.5%
- MA (60 c), % ([5]; 1.25 mmol/L): 48.0 ± 5.8%
- (MAx-MA0): MA0 * 100% (Ozagrel: (MA0-MAx): MA0 * 100%) ([5]; 2.5 mmol/L): 35.1%
- MA (60 c), % ([5]; 2.5 mmol/L): 39.2 ± 11.6%
- (MAx-MA0): MA0 * 100% (Ozagrel: (MA0-MAx): MA0 * 100%) ([5]; 5.0 mmol/L): 44.7%
- MA (60 c), % ([5]; 5.0 mmol/L): 33.4 ± 9.9%
